One compound from paper PMC12340087, “Guanine is an inhibitor of c-jun terminal kinases” (Scientific Reports, 2025) can be followed below.

Common to all, as to experiment: radiometric […]-ATP kinase assay, ATF2 substrate, ATP at apparent Km
Format in all cases: biochemical

Test [1] deals with T1, JNK1 (Homo sapiens, UniProt P45983).
T1 construct: gene MAPK8; untagged JNK1 (amino acids 1-384)

Test [2] deals with T2, JNK3 (Homo sapiens, UniProt P53779).
T2 construct: gene MAPK10; GST-tagged JNK3 (amino acids 1-426)

Test [3] deals with T3, JNK2 (Homo sapiens, UniProt P45984).
T3 construct: gene MAPK9; untagged JNK2 (amino acids 1-424)

A word on the IC50: it is the concentration at which inhibition is half-maximal.

T3 sequence (P45984 whole entry, the tested form may be a part): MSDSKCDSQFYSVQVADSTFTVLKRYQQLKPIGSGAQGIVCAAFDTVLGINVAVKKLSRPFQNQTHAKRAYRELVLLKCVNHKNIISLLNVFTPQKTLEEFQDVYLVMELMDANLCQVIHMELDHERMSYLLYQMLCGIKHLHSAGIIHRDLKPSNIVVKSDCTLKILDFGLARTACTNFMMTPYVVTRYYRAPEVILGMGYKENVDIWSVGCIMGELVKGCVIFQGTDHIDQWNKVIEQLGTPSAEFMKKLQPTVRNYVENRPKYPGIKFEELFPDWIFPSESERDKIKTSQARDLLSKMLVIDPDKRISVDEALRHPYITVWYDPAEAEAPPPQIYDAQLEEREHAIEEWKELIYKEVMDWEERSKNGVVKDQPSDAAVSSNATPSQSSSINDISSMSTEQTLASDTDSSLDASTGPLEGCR
T1 sequence (P45983 1-384 isoform P45983-2): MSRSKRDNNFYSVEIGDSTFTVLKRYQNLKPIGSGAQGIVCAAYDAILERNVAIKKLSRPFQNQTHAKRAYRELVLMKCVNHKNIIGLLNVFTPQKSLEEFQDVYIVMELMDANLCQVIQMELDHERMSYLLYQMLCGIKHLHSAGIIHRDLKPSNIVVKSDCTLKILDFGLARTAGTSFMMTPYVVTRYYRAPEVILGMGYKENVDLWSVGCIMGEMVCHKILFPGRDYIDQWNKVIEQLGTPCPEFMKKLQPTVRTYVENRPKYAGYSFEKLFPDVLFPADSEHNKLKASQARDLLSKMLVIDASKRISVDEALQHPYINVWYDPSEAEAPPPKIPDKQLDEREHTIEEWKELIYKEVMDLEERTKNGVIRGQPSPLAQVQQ
T2 sequence (P53779 1-426): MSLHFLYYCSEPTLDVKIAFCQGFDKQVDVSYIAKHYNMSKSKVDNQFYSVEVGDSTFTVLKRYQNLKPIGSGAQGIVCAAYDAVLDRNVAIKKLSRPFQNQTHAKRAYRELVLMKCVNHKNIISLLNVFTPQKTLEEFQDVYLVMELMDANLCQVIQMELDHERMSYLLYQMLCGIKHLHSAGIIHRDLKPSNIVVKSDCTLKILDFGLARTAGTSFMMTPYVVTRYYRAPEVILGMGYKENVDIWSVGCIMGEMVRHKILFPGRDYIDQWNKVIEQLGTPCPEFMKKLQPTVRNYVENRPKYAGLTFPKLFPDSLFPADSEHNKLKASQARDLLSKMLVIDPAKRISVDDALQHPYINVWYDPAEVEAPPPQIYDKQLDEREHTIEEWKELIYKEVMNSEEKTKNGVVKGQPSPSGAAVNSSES

Turning to `Nc1nc2nc[nH]c2c(=O)[nH]1` [G, guanine], the IC50 in test [1] came to 200 µM; in test [2], 330 µM; in test [3], 180 µM.
